According to PMC6273687, “Design, Synthesis and Biological Evaluation of Novel Primaquine-Cinnamic Acid Conjugates of the Amide and Acylsemicarbazide Type” (Molecules, 2016):

Experiments:
[1] = target: T1, soybean lipoxygenase (LOX) (Glycine max, UniProt P08170); experiment: LOX inhibition study in vitro; type: biochemical; settings: for inhibition at 100 µM: 1 × 10^−4 M
T1 construct: purchased Sigma-Aldrich
T1 sequence (P08170 1-839): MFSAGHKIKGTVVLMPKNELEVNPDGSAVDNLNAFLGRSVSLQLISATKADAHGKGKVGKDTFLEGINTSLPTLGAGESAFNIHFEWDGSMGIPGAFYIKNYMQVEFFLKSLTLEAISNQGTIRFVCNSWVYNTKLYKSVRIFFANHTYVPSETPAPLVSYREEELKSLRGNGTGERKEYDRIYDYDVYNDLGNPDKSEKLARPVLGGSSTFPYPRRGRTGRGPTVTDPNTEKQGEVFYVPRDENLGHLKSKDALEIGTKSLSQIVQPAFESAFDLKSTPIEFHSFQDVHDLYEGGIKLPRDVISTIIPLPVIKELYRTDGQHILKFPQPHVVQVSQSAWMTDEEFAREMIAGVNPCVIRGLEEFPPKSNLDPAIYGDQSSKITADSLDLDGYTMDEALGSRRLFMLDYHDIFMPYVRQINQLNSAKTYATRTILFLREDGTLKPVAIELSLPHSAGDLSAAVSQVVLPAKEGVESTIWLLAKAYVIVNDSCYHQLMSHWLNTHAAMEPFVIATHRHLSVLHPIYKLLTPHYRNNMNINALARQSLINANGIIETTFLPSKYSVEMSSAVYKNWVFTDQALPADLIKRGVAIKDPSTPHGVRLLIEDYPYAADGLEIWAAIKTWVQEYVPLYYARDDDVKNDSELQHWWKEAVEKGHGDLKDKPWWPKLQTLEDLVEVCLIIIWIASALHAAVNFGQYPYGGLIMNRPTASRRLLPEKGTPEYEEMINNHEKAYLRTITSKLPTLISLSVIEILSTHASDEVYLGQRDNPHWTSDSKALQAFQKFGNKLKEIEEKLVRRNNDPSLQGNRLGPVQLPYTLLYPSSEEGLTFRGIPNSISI
Experimental: LOX inhibitory assay in vitro was accomplished as described previously. The test compounds (stock solutions 10 mM in DMSO) were incubated at room temperature with sodium linoleate (c = 0.1 mM) and 0.2 mL of LOX enzyme solution (1/9 × 10^−4 m/V in saline). The conversion of sodium linoleate to 13-hydroperoxylinoleic acid was measured at 234 nm and compared with the reference inhibitor. Several concentrations were used for the IC50 determination.

[2] = Interaction with the stable radical DPPH (reducing ability)
Experimental: To a solution of DPPH in absolute ethanol the appropriate volume of the compounds (50 or 100 µM final concentrations) dissolved in DMSO was added. The absorbance was recorded at 517 nm after 20 and 60 min at room temperature. The experiments were repeated at least in triplicate and the standard deviation of absorbance was less than 10% of the mean. NDGA was used under the same experimental conditions as a reference compound.

[3] = tested on: MCF-7 breast carcinoma cell line; experiment: Growth inhibition of tumor cell lines in vitro (MTT / cell counting); type: cell-based, human; settings: Homo sapiens, MCF7, 72 h; MCF-7, 3 days
Experimental: (§1) The experiments were carried out on a murine lymphocytic leukemia cell line (L1210) and five human tumor cell lines: CEM, HeLa, NCI-H460, SW 620 and MCF-7. The cells were cultured as monolayers and maintained in Dulbecco′s modified Eagle medium (DMEM) supplemented with 10% fetal bovine serum (FBS), 2 mM L-glutamine, 100 U/mL penicillin and 100 μg/mL streptomycin in a humidified atmosphere with 5% CO2 at 37 °C.
(§2) The growth inhibition activity of the compounds was assessed as described previously. The cell lines were inoculated onto a series of standard 96-well microtiter plates on day 0, at 1.5 × 10^4 cells/mL (SW 620, H460) to 2.5 × 10^4 cells/mL (MCF-7, CEM and L1210), depending on the growth of the tumor cell line. Test agents were then added in ten-fold dilutions (10^−8 to 10^−4 M) and the cell cultures were then incubated for 3–4 days with 5% CO2 at 37 °C. Working dilutions of the compounds were freshly prepared on the day of testing.
(§3) After 3 (MCF-7, SW 620, NCI-H460) or 4 days (CEM, L1210), the cell growth rate was evaluated first light microscopically, then by viable cell counting and/or by performing the MTT assay, which detects dehydrogenase activity in live, not dead, cells. The absorbance (A) was measured on a microplate reader at 570 nm. The absorbance is directly proportional to the number of living, metabolically active cells. […] If however, all of the tested concentrations produce PGs exceeding the respective reference level of effect (e.g., PG value of 50), then the highest tested concentration is assigned as the default value, which is preceded by a “>” sign. Minimum two individual experiments were carried out and each test point was performed in quadruplicate.

[4] = tested on: NCI-H460 lung carcinoma cell line; experiment: as above; type: cell-based, human; settings: Homo sapiens, 72 h; NCI-H460, 3 days
Experimental: as §1, §2, §3

[5] = Inhibition of linoleic acid peroxidation (AAPH-induced); settings: 5 × 10^−5 M
Experimental: For initiating the lipid peroxidation free radical AAPH was used. Final solution in the UV cuvette consisted of 10 μL linoleate sodium solution (c = 16 mM), 0.93 mL phosphate buffer (c = 0.05 M), pH 7.4, thermostated at 37 °C. 50 μL AAPH solution (c = 40 mM) and 10 μL of the tested compounds were added. The experiment was performed at 37 °C under air. The oxidation of linoleic acid sodium salt was monitored at 234 nm. The assays were repeated at least in triplicate and the standard deviation of absorbance was less than 10% of the mean. Trolox was used under the same experimental conditions as a reference compound.

[6] = tested on: HeLa cervical carcinoma cell line; experiment: Growth inhibition of tumor cell lines in vitro (MTT / cell counting); type: cell-based; settings: Homo sapiens
Experimental: as §1, §2, §3

[7] = tested on: SW 620 colon carcinoma cell line; experiment: as above; type: cell-based; settings: Homo sapiens, 72 h; SW 620, 3 days
Experimental: as §1, §2, §3

[8] = tested on: L1210 murine lymphocytic leukemia cell line; experiment: as above; type: cell-based; settings: Mus musculus, 96 h; L1210, 4 days
Experimental: as §1, §2, §3

[9] = tested on: CEM acute lymphoblastic leukemia cell line; experiment: as above; type: cell-based; settings: Homo sapiens, 96 h, 4 days
Experimental: as §1, §2, §3

SMILES | inhibition at 100 µM [1] | DPPH-reducing ability RA (%) ([2]; 1 × 10^−4 M, 20 min) | DPPH-reducing ability RA (%) ([2]; 1 × 10^−4 M, 60 min) | DPPH-reducing ability RA (%) ([2]; 5 × 10^−5 M, 20 min) | DPPH-reducing ability RA (%) ([2]; 5 × 10^−5 M, 60 min) | IC50 [3] | IC50 [4] | LP Inhibition (%) [5] | IC50 [6] | IC50 [7] | IC50 [8] | IC50 [9] | IC50 ([1]; values in parentheses in Table 3)
COc1cc(NC(C)CCCNC(=O)/C=C/c2ccccc2)c2ncccc2c1 (centres unmarked) [3a, (E)-N-(4-(6-Methoxyquinolin-8-ylamino)pentyl)-3-phenylacrylamide] | 19% | 53% | 33% | 16% | 20% | 24 ± 5 µM | > 1 µM | 44% | 4 ± 0.9 µM | 23 ± 9 µM | 52 ± 3 µM | 27 ± 4 µM | –
COc1cc(NC(C)CCCNC(=O)NNC(=O)/C=C/c2ccccc2)c2ncccc2c1 (centres unmarked) [7a, (E)-1-Cinnamoyl-4-(4-(6-methoxyquinolin-8-ylamino)pentyl)semicarbazide] | 36% | 39% | 100% | 49% | 100% | 2.5 ± 1.9 µM | > 100 µM | 83% | 12 ± 2 µM | > 100 µM | 7 ± 3.1 µM | 3 ± 0.5 µM | –
COc1cc(NC(C)CCCNC(=O)/C=C/c2ccc(C(F)(F)F)cc2)c2ncccc2c1 (centres unmarked) [3j, (E)-N-(4-(6-Methoxyquinolin-8-ylamino)pentyl)-3-(4-(trifluoromethyl)phenyl)acrylamide] | – | 38% | 40% | – | – | 3.9 ± 0.6 µM | > 100 µM | 77% | 25 ± 6 µM | > 100 µM | 50 ± 18 µM | 14 ± 1 µM | 50 µM
COc1cc(NC(C)CCCNC(=O)/C=C/c2cc(C(F)(F)F)cc(C(F)(F)F)c2)c2ncccc2c1 (centres unmarked) [3k, (E)-3-(3,5-Bis(trifluoromethyl)phenyl)-N-[4-(6-methoxyquinolin-8-ylamino)pentyl]acrylamide] | 43% | – | 50% | – | – | 2.6 ± 0.5 µM | > 100 µM | 65% | 18 ± 1 µM | > 100 µM | 92 ± 24 µM | 68 ± 29 µM | –
COc1cc(NC(C)CCCNC(=O)/C=C/c2ccc3c(c2)OCO3)c2ncccc2c1 (centres unmarked) [3f, (E)-3-(Benzo[d][1,3]dioxo-5-yl)-N-(4-(6-methoxyquinolin-8-ylamino)pentyl)acrylamide] | 34% | 11% | 33% | – | – | 6.9 ± 1.3 µM | > 100 µM | 87% | 72 ± 57 µM | > 100 µM | 59 ± 2 µM | 37 ± 27 µM | –
